Laboratory results reported in BindingDB's records for doi:10.1111/j.1747-0285.2008.00752.x (Universitat Aut&Ogravenoma De Barcelona, 2009).

How the values were obtained:
Assay in all cases: Inhibition Assay
[1] = target: T1, Carboxypeptidase B2 (Homo sapiens, UniProt Q96IY4)
T1 sequence (Q96IY4 whole entry): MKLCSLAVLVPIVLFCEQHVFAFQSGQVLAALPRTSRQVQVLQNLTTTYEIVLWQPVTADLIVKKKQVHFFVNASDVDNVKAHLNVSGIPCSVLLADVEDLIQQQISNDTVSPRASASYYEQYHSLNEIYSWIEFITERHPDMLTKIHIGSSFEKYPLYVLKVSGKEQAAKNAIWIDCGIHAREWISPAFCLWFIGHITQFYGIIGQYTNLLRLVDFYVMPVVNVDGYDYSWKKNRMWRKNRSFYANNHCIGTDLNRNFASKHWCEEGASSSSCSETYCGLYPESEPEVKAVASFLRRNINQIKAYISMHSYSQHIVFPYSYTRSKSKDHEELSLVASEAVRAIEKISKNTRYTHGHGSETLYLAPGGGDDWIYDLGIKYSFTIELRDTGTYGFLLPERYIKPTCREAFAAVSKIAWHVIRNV
Excerpt: (§1) The aromatic compounds screening were characterized by molecular docking as well as by in vitro inhibition assay against carboxypeptidase(CPs) of different specifications and natural origin.

[2] = target: T2, Carboxypeptidase B (Helicoverpa zea, UniProt Q3T905)
T2 sequence (Q3T905 whole entry): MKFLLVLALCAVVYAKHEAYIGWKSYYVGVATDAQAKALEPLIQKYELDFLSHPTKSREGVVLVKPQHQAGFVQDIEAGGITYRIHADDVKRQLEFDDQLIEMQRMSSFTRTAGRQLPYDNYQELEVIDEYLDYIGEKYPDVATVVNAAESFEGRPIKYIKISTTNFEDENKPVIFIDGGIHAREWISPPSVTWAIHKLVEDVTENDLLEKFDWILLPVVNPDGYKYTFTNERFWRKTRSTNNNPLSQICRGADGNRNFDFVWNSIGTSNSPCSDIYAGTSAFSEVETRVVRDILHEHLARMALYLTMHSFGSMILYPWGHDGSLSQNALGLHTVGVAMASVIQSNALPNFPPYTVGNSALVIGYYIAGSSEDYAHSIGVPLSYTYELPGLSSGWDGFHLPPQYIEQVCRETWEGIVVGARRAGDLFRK
Excerpt: as §1

[3] = target: T3, Carboxypeptidase A1 (Bos taurus, UniProt P00730)
T3 sequence (P00730 whole entry): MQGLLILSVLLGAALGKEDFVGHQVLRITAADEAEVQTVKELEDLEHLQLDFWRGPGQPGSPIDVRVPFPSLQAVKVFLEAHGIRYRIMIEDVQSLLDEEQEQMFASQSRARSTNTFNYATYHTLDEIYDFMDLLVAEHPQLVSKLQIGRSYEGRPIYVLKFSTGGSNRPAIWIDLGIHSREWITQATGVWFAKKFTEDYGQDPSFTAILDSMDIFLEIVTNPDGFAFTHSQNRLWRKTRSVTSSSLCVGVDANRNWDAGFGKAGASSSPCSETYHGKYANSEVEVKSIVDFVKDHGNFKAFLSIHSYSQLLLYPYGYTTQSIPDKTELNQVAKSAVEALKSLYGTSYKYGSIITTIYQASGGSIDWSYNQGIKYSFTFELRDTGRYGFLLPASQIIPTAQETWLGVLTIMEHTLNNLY
Excerpt: as §1

| SMILES | Ki [1] [µM] | Ki [2] [µM] | Ki [3] [µM] |
| --- | --- | --- | --- |
| Nc1nccc2cc(CC(N)C(=O)O)ccc12 (stereo not given) [2-Amino-3-(1-aminoisoquinolin-6-yl)propanoic acid, 1] | 220 | 100 | 280 |
| Nc1nccc2ccc(CC(N)C(=O)O)cc12 (stereo not given) [2-amino-3-(1-aminoisoquinolin-7-yl)propanoic acid, 2] | 145 | 129 | 290 |
| Cc1ccc(C(=O)CSc2nnc(COc3cccc4cccnc34)o2)cc1 [1-(4-methylphenyl)-2-[[5-(8-quinolinyloxymethyl)-1,3,4-oxadiazol-2-yl]thio]ethanone] | 50 | 14 | 32 |
| O=C(Cn1nnc(-c2cccs2)n1)N1CCc2ccccc2C1 [1-(3,4-dihydroisoquinolin-2(1H)-yl)-2-(5thiophen-2-yl)-2H-tetrazol-2-yl)ethanone, 3] | 32 | 62 | 520 |
| COc1ccc2[nH]c(=O)c(CN(CCO)C(=S)Nc3ccc(C)cc3)cc2c1 [1-(2-hydroxyethyl)-1-((6-methoxy-2-oxo-1,2-dihydroquinolin-3-yl)methyl)3-yl)methyl)-3-p-tolythiourea, 7] | 22.5 | 20.5 | 420 |

Now those with a lower Ki [1], led by results:

| Ki [1] [µM] | Ki [2] [µM] | Ki [3] [µM] | SMILES |
| --- | --- | --- | --- |
| 14.3 | 82 | 37 | O=c1[nH]c(CN(Cc2ccccc2)S(=O)(=O)c2ccc(F)cc2)nc2ccccc12 [N-benzyl-4-fluoro-N-((4-hydroxyquinazolin-2-yl)methylbenzensulfonamide, 9] |
| 13.3 | 1.2 | 15 | COC(=O)c1ccccc1NC(=S)N(Cc1ccco1)Cc1cc2cccc(C)c2[nH]c1=O [methyl 2-(3-furan-2-ylmethyl)-3-((8-methyl-2-oxo-1,2,-dihydroquinolin-3-yl)methyl)thioureido)benzoate, 11] |
| 11.8 | 35 | 10.4 | O=C(O)CCSc1nnc(COc2cccc3ccccc23)n1-c1ccccc1 [3-(5-((naphthalen-1-yloxy)methyl)-4-pheny-4H-1,2,4-triazol-3-ythio)propanoic acid, 8] |
| 1.9 | 1.6 | 58 | Cc1ccc(C(=O)CSc2nnc(COc3ccc4ccccc4c3)o2)cc1 [2-(5-(naphthalen-2-yloxy)methyl)-1,3,4-oxadiazol-2-ylthio)-1-p-tolylethanone, 5] |
| 1.6 | 0.58 | 3.8 | Cc1ccc2[nH]c(=O)c(CN(Cc3cccs3)C(=S)NC(C)c3ccccc3)cc2c1 (stereo not given) [1-((6-methyl-2-oxo-1,2-dihydroquinolin-3-yl)methyl)-3-(1-phenylethyl)-1-(thiophen-2-ylmethyl)thiourea, 10] |
